Where a name gives a salt, the structure may show the parent alone.
What follows are compounds tested against CDK2/CCNE1 (Homo sapiens, UniProt P24941) (assay: CDK2 homogeneous time-resolved fluorescence (HTRF) assay). Conditions: 3 nM CDK2/CCNE1, 1 mM ATP, 50 nM ULight-eIF4E-binding protein 1 (Thr37/46) peptide, 60 min at 23° C.; read-out: CDK2/CCNE IC50 <25 nM.
Format: biochemical
Experimental: A CDK homogeneous time-resolved fluorescence (HTRF) assay was used to assess the potency of the compounds described herein.
To an untreated 384-well microtiter plate (ProxiPlate) was added 100 nL 100× test compound in DMSO and 5 μL 2×CDK enzyme in assay buffer (50 mM HEPES, 1 mM EGTA, 10 mM MgCl2, 0.01% Tween 20, 2 mM DTT). The plate was centrifuged at 800 RPM for 1 min then incubated for 20 min at 23° C. 2.5 μL per well of 4×ATP and 2.5 μL 4×ULight™-eIF4E-binding protein 1 (Thr37/46) Peptide) substrate were added to all wells. After addition, the plates were centrifuged at 800 RPM for 1 min. The plates were incubated at 23° C. for 60 min. 5 μL per well 3×EDTA solution were added to each well to stop the reaction. 2.5 μL 7×LANCE Ultra Europium-anti-phospho-eTF4E-binding protein 1 (Thr37/46 antibody) were added to each well and the plate was centrifuged for 1 min at 800 RPM. The plate was incubated for 60 min at 23° C. Fluorescence was read at 340 nm excitation and 665 nm emission on an EnVision 2105 fluorescence reader. The final concentrations of reagents in the activity assay were 3 nM CDK2/CCNE1, 1 mM ATP, 50 nM ULight™-eIF4E-binding protein 1 (Thr37/46) Peptide substrate, 1% DMSO, 10 mM EDTA, and 2 nM LANCE Ultra Europium-anti-phospho-eTF4E-binding protein 1 (Thr37/46).
Dose-response titrations were conducted by using an 11-point, three-fold serial dilution scheme typically starting at 1 μM. Signals were reported as fluorescence units at 665 nm or the ratio of fluorescence units at 665 nm/fluorescence units at 615 nm. Signals are referred to below as “Lance signals”.
Using this assay, the IC50 values of example compounds were determined.

| IC50 [nM] | Structure (SMILES) |
| --- | --- |
| < 25 | OCc1cccc(Nc2ncc3cnn(CC4CCCCC4)c3n2)c1 [Compound 20, (3-((1-(cyclohexylmethyl)-1H-pyrazolo[3,4-d]pyrimidin-6-yl)amino)phenyl)methanol] |
| < 25 | O=Cc1cccc(Nc2ncc3cnn(CC4CCCCC4)c3n2)c1 [Compound 26, 3-((1-(cyclohexylmethyl)-1H-pyrazolo[3,4-d]pyrimidin-6-yl)amino)benzaldehyde] |
| < 25 | C=CS(=O)(=O)c1ccc(Nc2ncc3cnn(CC4CCCCC4)c3n2)cn1 [Compound 34, 1-(cyclohexylmethyl)-N-(6-(vinylsulfonyl)pyridin-3-yl)-1H-pyrazolo[3,4-d]pyrimidin-6-amine] |
| < 25 | OCCc1cccc(Nc2ncc3cnn(CC4CCCCC4)c3n2)c1 [Compound 35, 2-(3-((1-(cyclohexylmethyl)-1H-pyrazolo[3,4-d]pyrimidin-6-yl)amino)phenyl)ethan-1-ol] |
| < 25 | CN[C@H]1CC[C@@H](Cn2ncc3cnc(Nc4ccc(S(C)(=O)=O)cc4)nc32)CC1 [Compound 45, 1-(((1s,4s)-4-(methylamino)cyclohexyl)methyl)-N-(4-(methylsulfonyl)phenyl)-1H-pyrazolo[3,4-d]pyrimidin-6-amine] |
| < 25 | CS(=O)(=O)c1ccc(Nc2ncc3cnn([C@@H]4CCC[C@@H](C#N)C4)c3n2)cc1 [Compound 46, (1R,3R)-3-(6-((4-(methylsulfonyl)phenyl)amino)-1H-pyrazolo[3,4-d]pyrimidin-1-yl)cyclohexane-1-carbonitrile] |
| < 25 | CS(=O)(=O)c1ccc(Nc2ncc3cnn(C[C@H]4CC[C@@H](CCl)CC4)c3n2)cc1 [Compound 49, 1-(((1S,4S)-4-(chloromethyl)cyclohexyl)methyl)-N-(4-(methylsulfonyl)phenyl)-1H-pyrazolo[3,4-d]pyrimidin-6-amine] |
| < 25 | CS(=O)(=O)c1ccc(Nc2ncc3cnn([C@@H]4CCC[C@@H](O)C4)c3n2)cc1 [Compound 51, (1R,3R)-3-(6-((4-(methylsulfonyl)phenyl)amino)-1H-pyrazolo[3,4-d]pyrimidin-1-yl)cyclohexan-1-ol] |

Same assay, conditions: 3 nM CDK2/CCNE1, 1 mM ATP, 50 nM ULight-eIF4E-binding protein 1 (Thr37/46) peptide, 60 min at 23° C.; read-out: CDK2/CCNE IC50 >150 nM

| Structure (SMILES) | IC50 [nM] |
| --- | --- |
| Cc1nn(CC2CCCCC2)c2nc(Nc3ccc(S(C)(=O)=O)cc3)ncc12 [Compound 19, 1-(cyclohexylmethyl)-3-methyl-N-(4-(methylsulfonyl)phenyl)-1H-pyrazolo[3,4-d]pyrimidin-6-amine] | > 150 |
| CS(=O)(=O)c1ccc(Nc2ncc3cnn([C@@H]4CC[C@@H](C#N)C4)c3n2)cc1 [Compound 47, (1R,3R)-3-(6-((4-(methylsulfonyl)phenyl)amino)-1H-pyrazolo[3,4-d]pyrimidin-1-yl)cyclopentane-1-carbonitrile] | > 150 |

Results, then the compound that gave them:

| IC50 [nM] | Structure (SMILES) |
| --- | --- |
| > 150 | CS(=O)(=O)c1ccc(Nc2ncc3cnn(C[C@H]4CC[C@@H](C(=O)Oc5ccc(F)cc5)CC4)c3n2)cc1 [Compound 18, 4-Fluorophenyl (1s,4s)-4-((6-((4-(methylsulfonyl)phenyl)amino)-1H-pyrazolo[3,4-d]pyrimidin-1-yl)methyl)cyclohexane-1-carboxylate] |
| > 150 | C=CS(=O)(=O)c1ncc(Nc2ncc3cnn(CC4CCCCC4)c3n2)cc1Cl [Compound 31, N-(5-chloro-6-(vinylsulfonyl)pyridin-3-yl)-1-(cyclohexylmethyl)-1H-pyrazolo[3,4-d]pyrimidin-6-amine] |
| > 150 | C#CC(=O)c1ccc(Nc2ncc3cnn(CC4CCCCC4)c3n2)cc1 [Compound 38, 1-(4-((1-(cyclohexylmethyl)-1H-pyrazolo[3,4-d]pyrimidin-6-yl)amino)phenyl)prop-2-yn-1-one] |
| > 150 | CS(=O)(=O)c1ccc(Nc2ncc3cnn(C4CC(=O)C4)c3n2)cc1 [Compound 39, 3-(6-((4-(methylsulfonyl)phenyl)amino)-1H-pyrazolo[3,4-d]pyrimidin-1-yl)cyclobutan-1-one] |
| > 150 | CC#CS(=O)(=O)c1ccc(Nc2ncc3cnn(CC4CCCCC4)c3n2)cc1 [Compound 43, 1-(cyclohexylmethyl)-N-(4-(prop-1-yn-1-ylsulfonyl)phenyl)-1H-pyrazolo[3,4-d]pyrimidin-6-amine] |
| > 150 | C=CC(=O)c1ccc(Nc2ncc3cnn(CC4CCCCC4)c3n2)cc1 [Compound 44, 1-(4-((1-(cyclohexylmethyl)-1H-pyrazolo[3,4-d]pyrimidin-6-yl)amino)phenyl)prop-2-en-1-one] |
| > 150 | CS(=O)(=O)c1ccc(Nc2ncc3cnn(C[C@H]4CC[C@H](CCl)CC4)c3n2)cc1 [Compound 48, 1-(((1R,4R)-4-(chloromethyl)cyclohexyl)methyl)-N-(4-(methylsulfonyl)phenyl)-1H-pyrazolo[3,4-d]pyrimidin-6-amine] |

Same assay, conditions: column 25-150 nM; 3 nM CDK2/CCNE1, 1 mM ATP, 50 nM ULight-eIF4E-binding protein 1 (Thr37/46) peptide, 60 min at 23° C.; read-out: CDK2/CCNE IC50 25-150 nM

| Structure (SMILES) | IC50 [nM] |
| --- | --- |
| CS(=O)(=O)c1ccc(Nc2ncc3cnn(C[C@H]4CC[C@@H](CO)CC4)c3n2)cc1 [Compound 17] | 25 to 150 |
| OCCc1ccc(Nc2ncc3cnn(CC4CCCCC4)c3n2)cc1 [Compound 22, 2-(4-((1-(cyclohexylmethyl)-1H-pyrazolo[3,4-d]pyrimidin-6-yl)amino)phenyl)ethan-1-ol] | 25 to 150 |
| C=CS(=O)(=O)c1ccc(Nc2ncc3cnn(CC4CCCCC4)c3n2)cc1C [Compound 23, 1-(cyclohexylmethyl)-N-(3-methyl-4-(vinylsulfonyl)phenyl)-1H-pyrazolo[3,4-d]pyrimidin-6-amine] | 25 to 150 |
| OCc1ccc(Nc2ncc3cnn(CC4CCCCC4)c3n2)cc1 [Compound 24, (4-((1-(cyclohexylmethyl)-1H-pyrazolo[3,4-d]pyrimidin-6-yl)amino)phenyl)methanol] | 25 to 150 |
| CS(=O)(=O)c1ccc(Nc2ncc3cnn(Cc4cccc5[nH]ccc45)c3n2)cc1 [Compound 29, 1-((1H-indol-4-yl)methyl)-N-(4-(methylsulfonyl)phenyl)-1H-pyrazolo[3,4-d]pyrimidin-6-amine] | 25 to 150 |
| C=C(C)S(=O)(=O)c1ccc(Nc2ncc3cnn(CC4CCCCC4)c3n2)cc1 [Compound 30, 1-(cyclohexylmethyl)-N-(4-(prop-1-en-2-ylsulfonyl)phenyl)-1H-pyrazolo[3,4-d]pyrimidin-6-amine] | 25 to 150 |
| C=CS(=O)(=O)c1ccc(Nc2ncc3cnn(CC4CCCCC4)c3n2)cc1F [Compound 36, 1-(cyclohexylmethyl)-N-(3-fluoro-4-(vinylsulfonyl)phenyl)-1H-pyrazolo[3,4-d]pyrimidin-6-amine] | 25 to 150 |
| CN(C)[C@H]1CC[C@@H](Cn2ncc3cnc(Nc4ccc(S(C)(=O)=O)cc4)nc32)CC1 [Compound 40, 1-(((1s,4s)-4-(dimethylamino)cyclohexyl)methyl)-N-(4-(methylsulfonyl)phenyl)-1H-pyrazolo[3,4-d]pyrimidin-6-amine formate] | 25 to 150 |
| CS(=O)(=O)c1ccc(Nc2ncc3cnn(C4CCC5(CC4)COC5)c3n2)cc1 [Compound 41, N-(4-(methylsulfonyl)phenyl)-1-(2-oxaspiro[3.5]nonan-7-yl)-1H-pyrazolo[3,4-d]pyrimidin-6-amine] | 25 to 150 |
| C=CS(=O)(=O)c1ccc(Nc2ncc3cnn(CC4CCCCC4)c3n2)cc1C(F)(F)F [Compound 42, 1-(cyclohexylmethyl)-N-(3-(trifluoromethyl)-4-(vinylsulfonyl)phenyl)-1H-pyrazolo[3,4-d]pyrimidin-6-amine] | 25 to 150 |

Results, then the compound that gave them:

| IC50 [nM] | Structure (SMILES) |
| --- | --- |
| 25 to 150 | C=CS(=O)(=O)c1ncc(Nc2ncc3cnn(CC4CCCCC4)c3n2)cn1 [Compound 21, 1-(cyclohexylmethyl)-N-(2-(vinylsulfonyl)pyrimidin-5-yl)-1H-pyrazolo[3,4-d]pyrimidin-6-amine] |
| 25 to 150 | O=Cc1ccc(Nc2ncc3cnn(CC4CCCCC4)c3n2)cc1 [Compound 25, 4-((1-(cyclohexylmethyl)-1H-pyrazolo[3,4-d]pyrimidin-6-yl)amino)benzaldehyde] |
| 25 to 150 | CS(=O)(=O)c1ccc(Nc2ncc3cnn(C[C@H]4CC[C@@H](C=O)CC4)c3n2)cc1 [Compound 27, (1s,4s)-4-((6-((4-(methylsulfonyl)phenyl)amino)-1H-pyrazolo[3,4-d]pyrimidin-1-yl)methyl)cyclohexane-1-carbaldehyde] |
| 25 to 150 | C=CS(=O)(=O)c1c(F)cc(Nc2ncc3cnn(CC4CCCCC4)c3n2)cc1F [Compound 37, 1-(cyclohexylmethyl)-N-(3,5-difluoro-4-(vinylsulfonyl)phenyl)-1H-pyrazolo[3,4-d]pyrimidin-6-amine] |
| 25 to 150 | CS(=O)(=O)c1ccc(Nc2ncc3cnn([C@@H]4CC[C@@H](O)C4)c3n2)cc1 [Compound 50, (1R,3R)-3-(6-((4-(methylsulfonyl)phenyl)amino)-1H-pyrazolo[3,4-d]pyrimidin-1-yl)cyclopentan-1-o1] |

— patent US20260306496A1, “CDK2 INHIBITOR PYRAZOLOPYRIMIDINE COMPOUNDS” (ALEKSIA THERAPEUTICS, INC., priority 2023, published 2026)
